Data from patent US11312758B2, “Peptides with vasodilatory and/or diuretic functions” (National University of Singapore, priority 2016, dated 2022).
Where “and” joins values, the source holds several entries; their conditions need not be identical. Equal entries are not always repeated. Positions of bridges follow the written chain, without caps; N, C: chain ends. Residues, ends and D or L forms follow the SMILES beside them.

Legend:
[1] = system: anesthetized male SD rats; test: In-vivo activity assay: peptide infusion in anesthetized rats (MAP, HR, PP, urine flow); set-up: species or system rat
Experimental: Male Sprague-Dawley (SD) rats (220-280 g) were obtained from Invivos, Singapore. Animals were acclimatized in the Animal Holding unit, NUS for 3 days before the experiment. The experiments were conducted under the guidance and approval of Institutional Animal Care and Use Committee, NUS (041/12).
The experiments were performed as described in Sridharan et al., [Biochem J 469 (2): 255-66 (2015)]. In brief, animals were anesthetized with sodium pentobarbital (60-70 mg/kg) and catheters were inserted in femoral artery, vein and urinary bladder. The body temperature of the animals was maintained using a thermostatic heat pad at 37° C. Continuous infusions (2 ml/h) of 0.2% BSA saline (with or without peptide) was administered through the femoral vein while a pressure transducer attached to the femoral artery recorded on-line changes in mean arterial pressure (MAP), heart rate (HR) and pulse pressure (PP). Urine was collected and the volume was measured after every 10 min. Experiments encompassed control (2×10 min), experimental (1×10 min) and recovery (4×10 min) periods. All animals were euthanized at the end of the experiment in carbon-di-oxide chambers.

[2] = biological target: T1, rat NPR-A (Rattus norvegicus, UniProt P18910); test: Whole cell cGMP assay, 30 min end-point dose-response in CHO-K1 cells transiently expressing NPR-A; assay type: cell-based
T1 construct: expressed in transfected cells; host or cells: CHO-K1
T1 sequence (P18910 29-1057): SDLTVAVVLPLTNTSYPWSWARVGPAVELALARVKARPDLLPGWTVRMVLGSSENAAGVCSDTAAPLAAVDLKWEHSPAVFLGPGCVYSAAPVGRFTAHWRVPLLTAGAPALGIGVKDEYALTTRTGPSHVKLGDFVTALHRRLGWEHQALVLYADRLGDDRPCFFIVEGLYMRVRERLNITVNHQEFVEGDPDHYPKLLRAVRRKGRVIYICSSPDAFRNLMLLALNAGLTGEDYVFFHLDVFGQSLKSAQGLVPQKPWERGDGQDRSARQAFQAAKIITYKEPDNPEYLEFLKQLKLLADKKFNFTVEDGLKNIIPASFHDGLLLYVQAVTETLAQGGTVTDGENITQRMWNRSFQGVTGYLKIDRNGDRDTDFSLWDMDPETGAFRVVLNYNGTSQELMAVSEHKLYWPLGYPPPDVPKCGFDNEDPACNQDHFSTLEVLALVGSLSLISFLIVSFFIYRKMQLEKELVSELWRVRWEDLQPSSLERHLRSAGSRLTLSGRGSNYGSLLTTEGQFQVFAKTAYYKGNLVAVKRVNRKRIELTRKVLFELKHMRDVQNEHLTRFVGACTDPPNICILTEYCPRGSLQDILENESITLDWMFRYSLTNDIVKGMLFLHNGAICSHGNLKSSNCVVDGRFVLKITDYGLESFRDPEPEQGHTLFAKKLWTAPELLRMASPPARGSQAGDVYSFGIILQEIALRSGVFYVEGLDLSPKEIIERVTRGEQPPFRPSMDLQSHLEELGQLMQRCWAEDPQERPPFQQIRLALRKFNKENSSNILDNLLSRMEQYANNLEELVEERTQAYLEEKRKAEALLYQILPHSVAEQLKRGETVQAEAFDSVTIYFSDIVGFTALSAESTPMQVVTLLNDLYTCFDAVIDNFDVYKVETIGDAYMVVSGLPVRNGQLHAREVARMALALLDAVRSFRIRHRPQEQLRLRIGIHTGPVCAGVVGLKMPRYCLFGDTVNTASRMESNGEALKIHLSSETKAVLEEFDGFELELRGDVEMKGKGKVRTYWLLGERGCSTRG
Experimental: (§1) The experiments were performed as described in Sridharan et al., [Biochem J 469 (2): 255-66 (2015)]. Dulbecco's modified Eagle's medium supplemented with 10% fetal bovine serum, 100 U/ml penicillin and 100 μg/ml streptomycin and 2 mM glutamine was used to grow CHO-K1 cells in a humidified incubator at 37° C. with 5% CO2. The cells were maintained by sub-culturing using 0.5% trypsin every three days. Cells (1×10^5) were seeded per well in 24-well plate and grown for 16 h. Cells in each well were transfected with 0.8 μg of plasmid encoding rat NPR-A using 2 μl of Lipofectamine™ 2000 transfection reagent. Cells were treated with the peptides 24 h after transfection.
NPR-A transfected CHO-K1 cells were treated with varying concentrations of peptides (10 nM to 10 μM dissolved in basal media containing 0.5 mM IBMX) for 30 min. The end-point accumulation of cGMP was measured after cell-lysis with 200 μl of 0.1 N HCl using Enzo life sciences cGMP ELISA kit (manufacturer's protocol).

[3] = biological target: T1, rat NPR-A; test: Time-chase study of cGMP accumulation (NPR-A activation kinetics) at EC50 concentration of peptide; assay type: cell-based
Experimental: as §1
Time-chase study was performed by treating the cells with EC50 concentration of the peptides. The reactions were terminated at the indicated time-points (0, 2, 5, 10, 20 and 30 min) by treating the cells with 0.1 N HCl. The cGMP concentration in the cell lysate was measured using cGMP ELISA kit (Enzo life sciences).

## CC[C@H](C)[C@@H]1NC(=O)[C@H](CC(=O)O)NC(=O)[C@H](CO)NC(=O)[C@H]([C@@H](C)O)NC(=O)[C@H](Cc2c[nH]cn2)NC(=O)[C@H](CO)NC(=O)[C@H]([C@@H](C)CC)NC(=O)[C@H](CCCNC(=N)N)NC(=O)[C@H](CC(=O)O)NC(=O)[C@H]([C@@H](C)CC)NC(=O)[C@H](CCCNC(=N)N)NC(=O)[C@H](CCCNC(=N)N)NC(=O)CNC(=O)[C@H](Cc2ccccc2)NC(=O)[C@@H](NC(=O)[C@H](CO)NC(=O)[C@@H](NC(=O)[C@H](CC(C)C)NC(=O)[C@H](CC(C)C)NC(=O)CN)[C@@H](C)CC)CSSC[C@@H](C(=O)N[C@@H](CCCNC(=N)N)C(=O)N[C@@H](Cc2c[nH]cn2)C(=O)O)NC(=O)CNC1=O [^GRDK-Ring] (H-GLLISCFGRRIDRISHTSDIGCRH-OH; disulfide 6-22; N-terminus and C-terminus assumed)
[1]; 2 nmol/kg/min infusion
  HR Rate of change per unit change in MAP: 2.82
  PP Rate of change per unit change in MAP: 0.7
[1]; 2.0 nmol/kg/min infusion
  Heart rate Peak response: −44.8±20.2 BPM and −44.8 ± 20.1 BPM
  Heart rate Peak time: 30 min
  Mean arterial pressure Peak response: −11.3 ± 4.3 mmHg
  Mean arterial pressure Peak time: 30 min
  Pulse pressure Peak time: 20 min
  Urine flow rate Peak response: <2 µL/min
[2]
  NPR-A activation potency, Ratio compared ANP: 2.9
[2]; cGMP response
  fold higher potency compared to K-Ring: 5 fold
[2]; negative = more potent than wild type
  NPR-A activation potency, Ratio compared wild type NPs: −4.8
[3]
  Rate of generation of cGMP, Ratio compared ANP: 70.5
  Rate of generation of cGMP, Ratio compared wild type NPs: 5.0
[3]; EC50 concentration of peptide
  Rate of generation of cGMP: 0.113 pmol cGMP/pmol peptide
  rate of generation of cGMP compared to K-Ring: slightly increased rate of cGMP production
  time of peak / maximum accumulation of cGMP: 10 min
